The record followed here is US9981928B2, “Aryl sulfide derivatives and aryl sulfoxide derivatives as acaricides and insecticides” (BAYER CROPSCIENCE AKTIENGESELLSCHAFT, priority 2013, dated 2018).

Data set [1] has as its system greenhouse red spider mite (Tetranychus urticae). Description: Tetranychus urticae spray test, OP-resistant (TETRUR), bean leaf disks. The format is in vivo. Particulars: for pest or weed control at 500 g/ha: Tetranychus urticae, foliar, 144 h, read-out: efficacy in %. How it is done:
Tetranychus urticae—Spray Test, OP-Resistant (TETRUR)
Solvent: 78.0 parts by weight of acetone
• 1.5 parts by weight of dimethylformamide Emulsifier: alkylaryl polyglycol ether
To produce a suitable preparation of active compound, 1 part by weight of active compound is dissolved using the stated parts by weight of solvent and made up with water containing an emulsifier concentration of 1000 ppm until the desired concentration is attained. To produce further test concentrations, the preparation is diluted with emulsifier-containing water.
disks of bean leaves (Phaseolus vulgaris) infested with all stages of the greenhouse red spider mite (Tetranychus urticae) are sprayed with an active compound preparation of the desired concentration.
After 6 days, the efficacy in % is determined. 100% means that all the spider mites have been killed; 0% means that none of the spider mites have been killed.

A short description of data set [2]: log P determination by HPLC on reversed-phase columns (C 18), analogously to OECD Guideline 117. In kind it is physicochemical. Particulars: for logP (HCOOH): LC-MS in the acidic range, pH 2.7, 0.1% aqueous formic acid / acetonitrile; for logP (HCOOH) / logP (neutral): HPLC reversed-phase C 18; for logP (neutral): LC-MS in the neutral range, pH 7.8, 0.001 molar aqueous ammonium hydrogencarbonate / acetonitrile. How it is done: The log P values were determined analogously to OECD Guideline 117 (EC Directive 92/69/EEC) by HPLC (high-performance liquid chromatography) using reversed-phase columns (C 18), by the following methods:
[a] The LC-MS determination in the acidic range was effected at pH 2.7 with 0.1% aqueous formic acid and acetonitrile (contains 0.1% formic acid) as eluents; linear gradient from 10% acetonitrile to 95% acetonitrile. log P^[a] is also referred to as log P(HCOOH). [b] LC-MS determination in the neutral range was effected at pH 7.8 with 0.001 molar aqueous ammonium hydrogencarbonate solution and acetonitrile as eluents; linear gradient from 10% acetonitrile to 95% acetonitrile. log P^[…] is also referred to as log P(neutral).

The mark [3] stands for this setting: bean leaf disks, application rate 500 g/ha, after 6 days.
Where [4] appears, read: reversed-phase C18 HPLC column, acidic range, pH 2.7, 0.1% aqueous formic acid and acetonitrile, read-out: log P[a] / log P(HCOOH).
Where [5] appears, read: reversed-phase C18 HPLC column, neutral range, pH 7.8, 0.001 molar aqueous ammonium hydrogencarbonate and acetonitrile, read-out: log P[b] / log P(neutral).
Setting [6] is: acidic range, pH 2.7, 0.1% aqueous formic acid and acetonitrile, read-out: log P[a] / log P(HCOOH).

Read-outs that look alike come from different tables or passages of the source.

In turn, `Cc1cc(F)c(-n2c(=O)n(CC3CC3)c(=O)n2C)cc1SCC(F)(F)F` [Example 161] showed an efficacy in % in data set [1] (setting [3]) of 100%. Further, in data set [2], the “logP (HCOOH)” value is recorded as 3.39 and the “logP (neutral)” value is recorded as 3.34.

With `CCn1c(=O)n(-c2cc(SCC(F)(F)F)c(C)cc2F)c(=O)n1CC` [Example 118, 1,2-Diethyl-4-{2-fluoro-4-methyl-5-[(2,2,2-trifluoroethyl)sulfanyl]phenyl}-1,2,4-triazolidine-3,5-dione], in data set [1] (setting [3]), the pest or weed control at 500 g/ha came to 100%. Also, the chromatographic logP in data set [2] (setting [4]) came to 3.03.

For `Cc1cc(C)c(N2CCNC2=O)cc1SCC(F)(F)F` [Example 1, 1-{2,4-Dimethyl-5-[(2,2,2-trifluoroethyl)sulfanyl]phenyl}imidazolidin-2-one], the pest or weed control at 500 g/ha in data set [1] came out at 90%. Besides, the chromatographic logP in data set [2] (setting [4]) came to 2.43; in data set [2] (setting [5]), 2.39.

`CCn1c(=O)n(C(C)(C)C)c(=O)n1-c1cc(SCC(F)(F)F)c(C)cc1F` [Example 99] came in with an efficacy in % in data set [1] (setting [3]) of 90%. Further, in data set [2], the “logP (HCOOH)” value was 4.21 and the “logP (neutral)” value was 4.16.

The molecule `CCn1c(=O)n(C(C)C)c(=O)n1-c1ccc(C)c(SCC(F)(F)F)c1` [Example 133] gave an efficacy in % in data set [1] (setting [3]) of 100%. Further, in data set [2], the “logP (HCOOH)” value amounted to 3.77 and the “logP (neutral)” value was found to be 3.73.

Turning to `Cc1cc(F)c(N2C(=O)C(C)(C)C(=O)N2C)cc1SCC(F)(F)F` [Example 174, 1-{2-Fluoro-4-methyl-5-[(2,2,2-trifluoroethyl)sulfanyl]phenyl}-2,4,4-trimethylpyrazolidine-3,5-dione], the pest or weed control at 500 g/ha in data set [1] (setting [3]) was determined as 100%. In addition, the chromatographic logP in data set [2] (setting [4]) stood at 2.84; in data set [2] (setting [5]) it was 2.79.

For the molecule `COCCCn1c(=O)n(C)n(-c2cc([S+]([O-])CC(F)(F)F)c(C)cc2F)c1=O` (stereo not drawn) [Example 170], the efficacy in % in data set [1] (setting [3]) worked out at 90%. In addition, in data set [2], the “logP (HCOOH)” value is 1.97 and the “logP (neutral)” value is 1.98.

`Cc1cc(F)c(-n2c(=O)n(C(C)(C)C)c(=O)n2CC(F)(F)F)cc1SCC(F)(F)F` [Example 147] returned an efficacy in % in data set [1] (setting [3]) of 100%. For the same molecule, in data set [2], the “logP (HCOOH)” value stood at 4.34 and the “logP (neutral)” value is given as 4.28.

Consider `Cc1ccc(-n2c(=O)n(C)c(=O)n2-c2ccc(C)c(SCC(F)(F)F)c2)cc1SCC(F)(F)F` [Example 56], for which the efficacy in % in data set [1] (setting [3]) worked out at 90%. Moreover, in data set [2], the “logP (HCOOH)” value stood at 4.34 and the “logP (neutral)” value was 4.05.

`Cc1cc(F)c(N2C(=O)C(=O)N(CC(C)C)C2=S)cc1[S+]([O-])CC(F)(F)F` (stereo not drawn) [Example 194] yielded an efficacy in % in data set [1] (setting [3]) of 90%. In data set [2], the “logP (HCOOH)” value was 3.56 and the “logP (neutral)” value is reported as 3.53.

With `Cc1cc(F)c(-n2c(=O)n(C)n(CC3CC3)c2=O)cc1SCC(F)(F)F` [Example 126], the efficacy in % in data set [1] (setting [3]) is given as 90%. The “logP (HCOOH)” value in data set [2] is recorded as 3.15.

With `Cc1cc(F)c(-n2c(=O)n(CC3CC3)c(=O)n2C)cc1[S+]([O-])CC(F)(F)F` (stereo not drawn) [Example 169], in data set [1] (bean leaf disks, application rate 100 g/ha, after 6 days), the efficacy in % is 90%. In data set [2], the “logP (HCOOH)” value worked out at 2.30 and the “logP (neutral)” value turned out to be 2.33.

For the molecule `C=CCn1c(=O)n(C2CC2)c(=O)n1-c1cc([S+]([O-])CC(F)(F)F)c(C)cc1F` (stereo not drawn) [Example 165], the efficacy in % in data set [1] (setting [3]) is recorded as 90%. In data set [2], the “logP (HCOOH)” value turned out to be 2.32 and the “logP (neutral)” value was found to be 2.30.

For `C=CCn1c(=O)n(-c2cc([S+]([O-])CC(F)(F)F)c(C)cc2F)c(=O)n1CC=C` (racemic) [Example 120], the efficacy in % in data set [1] (setting [3]) worked out at 90%. For the same molecule, the “logP (HCOOH)” value in data set [2] was 2.46.

As for `Cc1cc(F)c(N2C(=O)C(=O)N(CC(F)F)C2=O)cc1[S+]([O-])CC(F)(F)F` (stereo not drawn) [Example 103, 1-(2,2-Difluoroethyl)-3-{2-fluoro-4-methyl-5-[(2,2,2-trifluoroethyl)sulfinyl]phenyl}imidazolidine-2,4,5-trione], the chromatographic logP in data set [2] (setting [4]) was determined as 2.32; in data set [2] (setting [5]), 0.87.

`Cc1cc(F)c(N2C(=O)OCC2C)cc1[S+]([O-])CC(F)(F)F` (stereo not drawn) [Example 107, 3-[2-Fluoro-4-methyl-5-(2,2,2-trifluoroethylsulfinyl)phenyl]-4-methyloxazolidin-2-one]: in data set [2] (setting [4]), the chromatographic logP was 1.79.

Consider `Cc1cc(F)c(-n2c(=O)n(C3CC3)c(=O)n2C(C)(C)C)cc1SCC(F)(F)F` [Example 144], for which, in data set [2], the “logP (HCOOH)” value was 4.08 and the “logP (neutral)” value amounted to 4.07.

In the case of `Cn1[nH]c(=O)n(-c2cccc(C(F)(F)F)c2)c1=O` [1-methyl-4-[3-(trifluoromethyl)phenyl]-1,2,4-triazolidine-3,5-dione], the chromatographic logP in data set [2] (setting [4]) came out at 1.53.

Regarding `OB(O)c1ccc(Cl)c(SCC(F)(F)F)c1` [VIIIa-3, {4-Chloro-3-[(2,2,2-trifluoroethyl)sulfanyl]phenyl}boronic acid], the chromatographic logP in data set [2] (setting [4]) was determined as 2.4; in data set [2] (setting [5]), 2.41.

Regarding `C=CCOc1n[nH]c(=O)n1C1CC1` [drawing 121 R1=CH2CH═CH2 R10=cyclopropyl, 5-(allyloxy)-4-cyclopropyl-2,4-dihydro-3H-1,2,4-triazol-3-one], the chromatographic logP in data set [2] (setting [4]) came out at 1; in data set [2] (setting [5]), 1.03.

Consider `O=[N+]([O-])c1ccc(Cl)c(SSc2cc([N+](=O)[O-])ccc2Cl)c1` [XIX-3, 1,1′-Disulfanediylbis(2-chloro-5-nitrobenzene)], for which the chromatographic logP worked out at 3.31 in data set [2] (setting [6]); 3.35 in data set [2] (neutral range, pH 7.8, 0.001 molar aqueous ammonium hydrogencarbonate and acetonitrile, read-out: log P[b] / log P(neutral)).

Turning to `CCn1c(=O)n(CC)n(-c2ccc(C)c(SCC(F)(F)F)c2)c1=O` [Example 100, 1,4-Diethyl-2-{4-methyl-3-[(2,2,2-trifluoroethyl)sulfanyl]phenyl}-1,2,4-triazolidine-3,5-dione], the chromatographic logP in data set [2] (setting [4]) worked out at 3.32; in data set [2] (setting [5]), 3.29.

With `C=CCOC(=O)Nc1cc(SCC(F)(F)F)c(C)cc1F` [Allyl N-[2-fluoro-4-methyl-5-(2,2,2-trifluoroethylsulfanyl)phenyl]carbamate], in data set [2] (setting [6]), the chromatographic logP amounted to 3.59.

Take `COc1ccc(B(O)O)cc1[S+]([O-])CC(F)(F)F` (stereo not drawn) [VIIIb-8]: the results for the chromatographic logP in data set [2] (setting [4]) and in data set [2] (setting [5]) were 1.36 and 1.37, respectively.

On to `CC(C)n1[nH]c(=O)n(C2CC2)c1=O` [drawing 120 R1=CH(CH3)2 R10=cyclopropyl, 4-cyclopropyl-1-isopropyl-1,2,4-triazolidine-3,5-dione], for which the chromatographic logP in data set [2] (setting [4]) is 0.5.

Regarding `Cc1cc(C)c(B(O)O)cc1SCC(F)(F)F` [VIIIa-11, {2,4-Dimethyl-5-[(2,2,2-trifluoroethyl)sulfanyl]phenyl}boronic acid], the chromatographic logP in data set [2] (setting [4]) turned out to be 2.58; in data set [2] (setting [5]), 2.57.

With `Cc1cc(F)c(-n2c(=O)n(C3CC3)c(=O)n2C)cc1[S+]([O-])CC(F)(F)F` (single isomer, unassigned) [Example 197], in data set [2], the “logP (HCOOH)” value turned out to be 1.97 and the “logP (neutral)” value came to 1.89.

For the molecule `Cn1c(OCc2ccccc2Cl)n[nH]c1=O` [drawing 121 R1=2-chlorobenzyl R10=CH3, 5-[(2-chlorobenzyl)oxy]-4-methyl-2,4-dihydro-3H-1,2,4-triazol-3-one], the chromatographic logP in data set [2] (setting [4]) came out at 1.66; in data set [2] (setting [5]), 1.63.
